Results reported in ChEMBL document CHEMBL1141723, “Specific targeting of metzincin family members with small-molecule inhibitors: progress toward a multifarious challenge” (Bioorg Med Chem, 2008).
Activity calls are given as the source filed them. The calls are words filed in the database; no cut-off is given here.

Assays:
Stromelysin-1 [1] = target: T1, Stromelysin-1 (Homo sapiens, UniProt P08254)
Target sequence in this assay (P08254 whole entry): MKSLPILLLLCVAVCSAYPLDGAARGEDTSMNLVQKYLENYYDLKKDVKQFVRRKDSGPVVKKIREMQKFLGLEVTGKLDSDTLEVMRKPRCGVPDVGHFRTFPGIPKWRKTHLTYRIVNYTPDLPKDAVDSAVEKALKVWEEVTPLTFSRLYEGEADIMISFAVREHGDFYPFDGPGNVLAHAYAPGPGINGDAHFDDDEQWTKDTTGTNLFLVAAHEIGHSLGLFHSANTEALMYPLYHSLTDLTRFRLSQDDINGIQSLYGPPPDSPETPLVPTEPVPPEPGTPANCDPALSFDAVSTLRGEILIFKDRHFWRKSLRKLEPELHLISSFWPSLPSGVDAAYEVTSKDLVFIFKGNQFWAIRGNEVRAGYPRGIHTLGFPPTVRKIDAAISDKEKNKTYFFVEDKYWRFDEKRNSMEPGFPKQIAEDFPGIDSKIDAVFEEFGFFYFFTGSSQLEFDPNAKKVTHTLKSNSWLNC

[2] = target: T2, 72 kDa type IV collagenase (Homo sapiens, UniProt P08253)
Target sequence in this assay (P08253 whole entry): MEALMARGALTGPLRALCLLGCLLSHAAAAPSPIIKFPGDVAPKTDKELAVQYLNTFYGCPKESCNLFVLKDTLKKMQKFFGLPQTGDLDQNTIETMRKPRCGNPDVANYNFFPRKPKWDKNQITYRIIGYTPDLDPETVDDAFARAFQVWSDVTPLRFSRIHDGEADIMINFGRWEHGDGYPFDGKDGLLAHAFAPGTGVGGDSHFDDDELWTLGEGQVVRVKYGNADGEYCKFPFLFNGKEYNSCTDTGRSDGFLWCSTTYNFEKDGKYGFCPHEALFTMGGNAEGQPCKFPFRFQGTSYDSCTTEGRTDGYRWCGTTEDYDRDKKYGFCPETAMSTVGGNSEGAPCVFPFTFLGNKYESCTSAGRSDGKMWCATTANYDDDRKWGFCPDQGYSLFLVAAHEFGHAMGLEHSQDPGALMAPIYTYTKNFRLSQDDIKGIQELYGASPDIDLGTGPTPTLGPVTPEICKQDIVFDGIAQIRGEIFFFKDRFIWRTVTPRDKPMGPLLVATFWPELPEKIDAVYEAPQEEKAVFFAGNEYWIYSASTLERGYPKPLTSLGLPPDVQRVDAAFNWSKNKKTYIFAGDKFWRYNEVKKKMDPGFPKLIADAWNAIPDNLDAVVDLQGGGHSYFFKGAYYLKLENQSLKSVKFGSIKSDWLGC

[3] = Inhibition of bovine aggrecanase; design: species or system Bos taurus
[4] = target: T3, Matrix metalloproteinase-9 (Homo sapiens, UniProt P14780); assay: Inhibition of MMP9
Collagenase 3 [5] = target: T4, Collagenase 3 (Homo sapiens, UniProt P45452); assay: Inhibition of MMP13
Interstitial collagenase = target: T5, Interstitial collagenase (Homo sapiens, UniProt P03956)
T5 sequence (P03956 whole entry): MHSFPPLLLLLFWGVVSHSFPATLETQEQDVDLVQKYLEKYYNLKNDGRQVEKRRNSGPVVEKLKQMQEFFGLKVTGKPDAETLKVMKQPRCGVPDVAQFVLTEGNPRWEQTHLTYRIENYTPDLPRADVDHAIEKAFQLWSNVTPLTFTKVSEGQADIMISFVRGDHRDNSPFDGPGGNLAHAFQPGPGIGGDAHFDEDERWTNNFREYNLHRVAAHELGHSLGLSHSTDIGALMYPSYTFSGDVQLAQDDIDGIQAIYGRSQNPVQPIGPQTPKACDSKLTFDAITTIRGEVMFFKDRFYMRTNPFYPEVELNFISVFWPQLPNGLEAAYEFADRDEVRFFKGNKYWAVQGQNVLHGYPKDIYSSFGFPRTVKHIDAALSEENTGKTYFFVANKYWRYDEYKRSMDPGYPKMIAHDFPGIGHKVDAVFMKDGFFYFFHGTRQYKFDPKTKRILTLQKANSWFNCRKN

[6] = Selectivity for pig TACE over MMP1
[7] = Selectivity for pig TACE over MMP7
[8] = Selectivity for pig TACE over MMP2
[9] = Selectivity for pig TACE over MMP8
[10] = Selectivity for pig TACE over MMP3
[11] = Selectivity for pig TACE over MMP9
[12] = target: T6, Interstitial collagenase (Homo sapiens) (UniProt P03956); assay: Inhibition of MMP1 at 10 uM
T6 sequence (whole entry): T5 sequence (P03956 whole entry)

Collagenase 3 [13] = target: T4, Collagenase 3; assay: Inhibition of MMP13 at 10 uM
[14] = target: T3, Matrix metalloproteinase-9; assay: Inhibition of MMP9 at 10 uM
[15] = target: T6, Interstitial collagenase (Homo sapiens); assay: Inhibition of MMP1 at 100 uM
[16] = target: T7, Matrix metalloproteinase-14 (Homo sapiens, UniProt P50281); assay: Inhibition of MMP14 up to 100 uM
[17] = target: Macrophage metalloelastase (Homo sapiens, UniProt P39900); assay: Inhibition of MMP12 up to 100 uM
Neutrophil collagenase [18] = target: T8, Neutrophil collagenase (Homo sapiens, UniProt P22894); assay: Inhibition of MMP8 up to 100 uM
[19] = target: T2, 72 kDa type IV collagenase; assay: Inhibition of MMP2 up to 100 uM
Target sequence in this assay (P08253 110-660 limits assumed): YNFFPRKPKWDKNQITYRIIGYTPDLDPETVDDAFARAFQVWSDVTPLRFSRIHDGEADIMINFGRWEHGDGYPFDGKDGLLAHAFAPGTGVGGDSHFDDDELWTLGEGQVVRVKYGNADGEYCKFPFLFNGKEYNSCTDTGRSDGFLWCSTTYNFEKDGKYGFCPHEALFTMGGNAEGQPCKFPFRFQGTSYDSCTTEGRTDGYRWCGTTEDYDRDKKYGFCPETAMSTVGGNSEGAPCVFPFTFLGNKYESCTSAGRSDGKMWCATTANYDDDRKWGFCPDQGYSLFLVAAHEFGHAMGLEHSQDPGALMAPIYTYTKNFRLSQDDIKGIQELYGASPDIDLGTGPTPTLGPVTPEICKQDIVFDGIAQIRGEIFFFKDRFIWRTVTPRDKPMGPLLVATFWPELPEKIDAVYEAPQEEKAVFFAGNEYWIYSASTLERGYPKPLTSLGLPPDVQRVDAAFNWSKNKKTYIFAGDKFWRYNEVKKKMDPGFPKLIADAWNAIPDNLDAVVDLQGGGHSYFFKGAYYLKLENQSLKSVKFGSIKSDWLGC

[20] = target: T9, Matrix metalloproteinase-17 (Homo sapiens) (UniProt Q9ULZ9); assay: Inhibition of MMP17 up to 100 uM
T9 sequence (whole entry): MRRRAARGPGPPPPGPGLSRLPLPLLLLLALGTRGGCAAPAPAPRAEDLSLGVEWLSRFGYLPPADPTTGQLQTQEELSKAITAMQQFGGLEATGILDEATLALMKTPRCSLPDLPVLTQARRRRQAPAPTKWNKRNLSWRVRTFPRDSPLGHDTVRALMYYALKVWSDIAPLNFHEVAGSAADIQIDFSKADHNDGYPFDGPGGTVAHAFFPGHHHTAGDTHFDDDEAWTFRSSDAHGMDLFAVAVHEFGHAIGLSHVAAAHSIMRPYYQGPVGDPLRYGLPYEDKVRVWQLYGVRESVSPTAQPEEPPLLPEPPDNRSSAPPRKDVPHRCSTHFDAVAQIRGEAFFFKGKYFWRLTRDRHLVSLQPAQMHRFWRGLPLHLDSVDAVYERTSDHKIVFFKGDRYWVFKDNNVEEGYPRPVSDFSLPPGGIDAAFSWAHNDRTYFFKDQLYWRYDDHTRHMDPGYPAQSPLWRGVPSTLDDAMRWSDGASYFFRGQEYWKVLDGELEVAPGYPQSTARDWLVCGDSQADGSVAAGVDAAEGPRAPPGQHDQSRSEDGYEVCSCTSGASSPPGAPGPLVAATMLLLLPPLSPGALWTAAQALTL

[21] = target: T10, Matrilysin (Homo sapiens) (UniProt P09237); assay: Inhibition of MMP7 up to 100 uM
T10 sequence (whole entry): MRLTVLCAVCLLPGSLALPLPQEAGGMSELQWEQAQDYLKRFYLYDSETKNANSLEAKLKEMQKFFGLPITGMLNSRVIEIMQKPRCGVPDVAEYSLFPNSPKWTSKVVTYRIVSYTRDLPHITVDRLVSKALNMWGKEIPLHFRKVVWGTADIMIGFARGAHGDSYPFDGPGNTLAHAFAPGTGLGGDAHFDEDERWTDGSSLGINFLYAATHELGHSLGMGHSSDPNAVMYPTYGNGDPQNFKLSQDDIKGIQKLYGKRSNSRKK

[22] = target: T3, Matrix metalloproteinase-9; assay: Inhibition of MMP9 up to 100 uM
Stromelysin-1 [23] = target: T1, Stromelysin-1; assay: Inhibition of MMP3 up to 100 uM
Target sequence in this assay (P08254 100-477 limits assumed): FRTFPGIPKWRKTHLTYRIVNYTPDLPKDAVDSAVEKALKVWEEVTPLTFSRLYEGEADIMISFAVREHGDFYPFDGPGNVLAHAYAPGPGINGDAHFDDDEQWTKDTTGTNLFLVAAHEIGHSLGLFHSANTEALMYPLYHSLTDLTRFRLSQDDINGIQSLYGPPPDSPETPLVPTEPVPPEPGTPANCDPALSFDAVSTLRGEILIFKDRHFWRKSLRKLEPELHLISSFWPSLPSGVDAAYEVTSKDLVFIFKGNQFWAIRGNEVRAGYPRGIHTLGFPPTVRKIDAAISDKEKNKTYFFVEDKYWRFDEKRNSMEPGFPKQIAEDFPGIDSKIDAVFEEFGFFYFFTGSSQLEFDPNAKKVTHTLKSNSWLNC

[24] = Selectivity for TACE over ADAM10
[25] = Selectivity for TACE over MMP2
[26] = Selectivity for TACE over MMP7
[27] = Selectivity for TACE over MMP3
[28] = Selectivity for TACE over BMP1
[29] = Selectivity for TACE over MMP1
[30] = Selectivity for TACE over MMP14
[31] = target: Disintegrin and metalloproteinase domain-containing protein 17 (Sus scrofa, UniProt O77636); assay: Inhibition of pig TACE
Matrilysin = target: T11, Matrilysin (Homo sapiens, UniProt P09237)
T11 sequence (P09237 whole entry): T10 sequence (whole entry)

[32] = target: T12, Disintegrin and metalloproteinase domain-containing protein 10 (Homo sapiens, UniProt O14672); assay: Inhibition of ADAM10
T12 sequence (O14672 whole entry): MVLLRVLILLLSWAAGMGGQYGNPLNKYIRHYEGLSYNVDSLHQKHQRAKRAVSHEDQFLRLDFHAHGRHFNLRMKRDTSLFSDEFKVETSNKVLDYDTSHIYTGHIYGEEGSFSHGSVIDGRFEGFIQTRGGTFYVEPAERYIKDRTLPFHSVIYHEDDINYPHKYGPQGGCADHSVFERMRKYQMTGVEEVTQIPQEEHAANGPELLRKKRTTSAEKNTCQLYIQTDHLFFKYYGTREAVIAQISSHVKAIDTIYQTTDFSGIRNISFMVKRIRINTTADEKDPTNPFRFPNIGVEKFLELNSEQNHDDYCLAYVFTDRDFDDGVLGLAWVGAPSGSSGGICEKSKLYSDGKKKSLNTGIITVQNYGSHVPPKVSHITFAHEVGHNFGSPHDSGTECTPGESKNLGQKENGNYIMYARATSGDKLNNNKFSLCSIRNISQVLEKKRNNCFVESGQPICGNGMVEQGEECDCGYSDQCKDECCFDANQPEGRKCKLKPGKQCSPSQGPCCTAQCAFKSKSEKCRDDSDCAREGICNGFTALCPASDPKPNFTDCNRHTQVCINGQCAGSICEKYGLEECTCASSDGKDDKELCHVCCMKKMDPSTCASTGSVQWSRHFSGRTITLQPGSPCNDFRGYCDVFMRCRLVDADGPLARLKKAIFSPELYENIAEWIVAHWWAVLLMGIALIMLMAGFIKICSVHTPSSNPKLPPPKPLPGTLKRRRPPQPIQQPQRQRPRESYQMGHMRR

[33] = target: T7, Matrix metalloproteinase-14; assay: Inhibition of MMP14
Neutrophil collagenase [34] = target: T8, Neutrophil collagenase; assay: Inhibition of MMP8
[35] = target: A disintegrin and metalloproteinase with thrombospondin motifs 5 (Homo sapiens, UniProt Q9UNA0); assay: Inhibition of ADAMTS5
Sequence of A disintegrin and metalloproteinase with thrombospondin motifs 5 (Q9UNA0 whole entry): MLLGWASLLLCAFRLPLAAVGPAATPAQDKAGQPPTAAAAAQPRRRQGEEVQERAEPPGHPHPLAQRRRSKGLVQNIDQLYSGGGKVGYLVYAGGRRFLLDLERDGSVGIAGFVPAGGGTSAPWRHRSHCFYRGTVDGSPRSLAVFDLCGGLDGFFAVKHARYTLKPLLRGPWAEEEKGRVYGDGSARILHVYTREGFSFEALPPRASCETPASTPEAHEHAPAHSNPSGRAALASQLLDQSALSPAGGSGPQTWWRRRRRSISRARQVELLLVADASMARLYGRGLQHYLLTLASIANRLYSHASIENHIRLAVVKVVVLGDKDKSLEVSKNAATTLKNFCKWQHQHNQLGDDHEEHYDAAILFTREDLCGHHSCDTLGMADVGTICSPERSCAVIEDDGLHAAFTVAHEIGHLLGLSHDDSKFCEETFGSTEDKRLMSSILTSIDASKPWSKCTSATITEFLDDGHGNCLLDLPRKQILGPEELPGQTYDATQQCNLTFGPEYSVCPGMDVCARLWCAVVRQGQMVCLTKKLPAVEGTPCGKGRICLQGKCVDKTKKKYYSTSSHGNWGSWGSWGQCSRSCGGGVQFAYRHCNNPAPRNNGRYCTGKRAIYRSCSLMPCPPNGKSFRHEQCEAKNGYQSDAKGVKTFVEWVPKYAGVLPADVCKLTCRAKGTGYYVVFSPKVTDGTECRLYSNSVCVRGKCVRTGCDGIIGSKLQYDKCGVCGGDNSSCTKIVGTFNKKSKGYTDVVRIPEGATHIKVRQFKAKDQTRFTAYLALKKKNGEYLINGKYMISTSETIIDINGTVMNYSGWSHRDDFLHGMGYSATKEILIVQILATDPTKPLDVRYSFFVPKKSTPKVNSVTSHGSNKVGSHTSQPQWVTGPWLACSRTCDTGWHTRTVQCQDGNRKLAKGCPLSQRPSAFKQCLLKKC

T3 sequence (P14780 whole entry): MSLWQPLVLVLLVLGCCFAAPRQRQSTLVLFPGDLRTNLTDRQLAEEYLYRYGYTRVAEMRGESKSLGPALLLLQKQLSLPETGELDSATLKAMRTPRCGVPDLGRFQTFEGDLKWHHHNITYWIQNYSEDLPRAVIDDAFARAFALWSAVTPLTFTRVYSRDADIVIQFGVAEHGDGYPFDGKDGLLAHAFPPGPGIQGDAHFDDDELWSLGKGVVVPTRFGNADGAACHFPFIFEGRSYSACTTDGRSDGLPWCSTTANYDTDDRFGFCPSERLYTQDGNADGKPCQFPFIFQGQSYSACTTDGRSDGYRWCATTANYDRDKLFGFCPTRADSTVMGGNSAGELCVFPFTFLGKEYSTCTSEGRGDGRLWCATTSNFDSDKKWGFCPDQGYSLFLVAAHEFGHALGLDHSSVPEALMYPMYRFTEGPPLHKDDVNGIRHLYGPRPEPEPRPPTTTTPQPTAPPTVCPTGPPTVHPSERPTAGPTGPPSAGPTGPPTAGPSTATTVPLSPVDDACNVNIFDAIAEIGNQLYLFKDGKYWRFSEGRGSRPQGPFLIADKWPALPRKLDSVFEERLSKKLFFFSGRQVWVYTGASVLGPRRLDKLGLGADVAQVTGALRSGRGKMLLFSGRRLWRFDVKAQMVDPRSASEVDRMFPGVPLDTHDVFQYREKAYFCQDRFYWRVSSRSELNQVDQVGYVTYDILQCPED
Sequence of Disintegrin and metalloproteinase domain-containing protein 17 (O77636 whole entry, the tested form may be a part): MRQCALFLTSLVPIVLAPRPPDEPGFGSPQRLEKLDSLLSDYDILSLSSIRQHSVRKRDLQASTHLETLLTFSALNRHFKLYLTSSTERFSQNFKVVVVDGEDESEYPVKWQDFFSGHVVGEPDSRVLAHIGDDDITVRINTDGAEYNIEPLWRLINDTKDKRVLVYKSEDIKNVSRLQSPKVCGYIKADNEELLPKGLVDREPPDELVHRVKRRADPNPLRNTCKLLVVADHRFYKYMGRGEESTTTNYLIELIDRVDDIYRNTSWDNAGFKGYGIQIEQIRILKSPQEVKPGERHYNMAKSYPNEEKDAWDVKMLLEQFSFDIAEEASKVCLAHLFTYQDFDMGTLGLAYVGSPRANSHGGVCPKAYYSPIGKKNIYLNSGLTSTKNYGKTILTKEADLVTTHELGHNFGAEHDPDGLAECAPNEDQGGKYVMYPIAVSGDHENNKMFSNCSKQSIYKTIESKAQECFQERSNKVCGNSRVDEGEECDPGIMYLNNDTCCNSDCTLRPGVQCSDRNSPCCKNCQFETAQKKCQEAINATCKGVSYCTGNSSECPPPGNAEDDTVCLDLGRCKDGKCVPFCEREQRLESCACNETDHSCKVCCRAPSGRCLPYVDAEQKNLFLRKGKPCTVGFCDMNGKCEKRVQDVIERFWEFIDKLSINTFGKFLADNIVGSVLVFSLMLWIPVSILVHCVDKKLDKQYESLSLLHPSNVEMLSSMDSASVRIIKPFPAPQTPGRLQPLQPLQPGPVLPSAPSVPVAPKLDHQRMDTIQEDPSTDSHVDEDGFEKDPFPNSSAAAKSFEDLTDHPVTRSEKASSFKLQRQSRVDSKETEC
Sequence of Macrophage metalloelastase (P39900 106-470 limits assumed): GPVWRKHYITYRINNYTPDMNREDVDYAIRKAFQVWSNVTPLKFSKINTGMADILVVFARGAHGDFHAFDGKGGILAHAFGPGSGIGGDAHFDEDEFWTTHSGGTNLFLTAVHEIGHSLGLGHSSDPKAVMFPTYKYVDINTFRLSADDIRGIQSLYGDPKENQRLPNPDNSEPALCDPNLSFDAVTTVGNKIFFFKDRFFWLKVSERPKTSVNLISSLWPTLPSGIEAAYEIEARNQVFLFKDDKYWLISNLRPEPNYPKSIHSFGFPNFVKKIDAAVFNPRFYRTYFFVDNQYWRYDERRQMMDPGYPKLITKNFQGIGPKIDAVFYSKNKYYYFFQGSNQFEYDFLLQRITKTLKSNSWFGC

With `CCCN1C(=O)[C@H](CS)NC(=O)[C@@H]1Cc1ccc([N+](=O)[O-])cc1` the IC50 (Stromelysin-1 [1]) was > 20 µM.
With `CC1(CN[C@H](C(=O)NO)[C@@H](Cc2cccc(O)c2)C(=O)N[C@H]2c3ccccc3C[C@H]2O)CC1` the Ki [2] was > 3 µM, the Ki (Stromelysin-1 [1]) was > 4.5 µM and the IC50 [3] was 0.008 µM. For the same molecule, the Ki [4] was < 0.001 µM, the Ki (Collagenase 3 [5]) was > 5 µM and the Ki (Interstitial collagenase) was 5.25 µM.
For `Cc1cc(COc2ccc(C(=O)N[C@@H]3CCOC[C@@H]3C(=O)NO)cc2)c2ccccc2n1`, the fold change (FC) [6] was > 30000, the fold change (FC) [7] was 200 and the fold change (FC) [8] was > 30000. The fold change (FC) [9] was 5500, the fold change (FC) [10] was 427 and the fold change (FC) [11] was > 14000.
With `CC#CCOc1ccc(S(=O)(=O)C2(C(=O)NO)CCN(c3ccc(Cl)cc3)CC2)cc1` the inhibition [12] was 52%, the inhibition (Collagenase 3 [13]) was 56% and the inhibition [14] was 52%.
For `O=C(OCc1ccccc1)c1cn2c(=O)n(Cc3ccccc3)c(=O)cc2s1`, the Activity [15] was “inactive”, the Activity [16] was “inactive” and the Activity [17] was “inactive”. For the same molecule, the Activity (Neutrophil collagenase [18]) was “inactive”, the Activity [19] was “inactive” and the Activity [20] was “inactive”. The Activity [21] was “inactive”, the Activity [22] was “inactive” and the Activity (Stromelysin-1 [23]) was “inactive”.
In the case of `COC(=O)[C@]1(c2cccc(OCc3cc(C)nc4ccccc34)c2)C[C@H]1C(=O)NO`, the fold change (FC) [24] is reported as 4, the fold change (FC) [25] is reported as 3400 and the fold change (FC) [26] is reported as > 8300. For the same molecule, the fold change (FC) [27] was 1300, the fold change (FC) [28] was 1400 and the fold change (FC) [29] was > 8300. The fold change (FC) [30] was 770.
For `Cc1cc(COc2ccc(C(=O)Nc3ccccc3C(=O)c3c[nH]c(=O)[nH]3)cc2)c2ccccc2n1`, the IC50 [31] was 0.009 µM and the Ki (Matrilysin) was > 0.636 µM.
In the case of `COC(=O)[C@@]1(Cc2ccc(OCc3cc(C)nc4ccccc34)cc2)C[C@@H]1C(=O)NO`, the fold change (FC) [24] is reported as > 7000, the fold change (FC) [25] is reported as 1100 and the fold change (FC) [26] is reported as 200. For the same molecule, the fold change (FC) [27] was 100, the fold change (FC) [28] was 2200 and the fold change (FC) [29] was > 12500. The fold change (FC) [30] was 1800.
In the case of `Cc1cc(C#N)ccc1N1CCN(S(=O)(=O)CC2(C(=O)NO)CCN(C(=O)O[C@@H]3CCOC3)CC2)CC1`, the IC50 [2] is reported as > 5 µM, the IC50 (Stromelysin-1 [1]) is reported as > 5 µM and the IC50 [4] is reported as > 5 µM. The IC50 [32] was 0.026 µM and the IC50 (Interstitial collagenase) was > 5 µM.
For `COC[C@@H](NC(=O)[C@@H](NC(=O)[C@H](CCCc1ccc(-c2ccccc2)c(C)c1)CC(=O)O)C(C)(C)C)c1ccccc1`, the inhibition [15] was 20%.
For `Cc1cc(COc2ccc(S(=O)(=O)CC(C=C3CCN(CC(C)C)CC3)N(O)C=O)cc2)c2ccccc2n1` (configuration not stated), the IC50 [33] was > 100 µM, the IC50 (Neutrophil collagenase [34]) was > 100 µM and the IC50 (Interstitial collagenase) was > 100 µM.
`O=C(NO)[C@@H](NCC1CC1)[C@@H](Cc1cccc(O)c1)C(=O)N[C@H]1c2ccccc2C[C@H]1O` gave an IC50 [3] of 0.012 µM.
`O=C(N[C@@H]1CCOC[C@@H]1C(=O)NO)c1ccc(Cn2c(C(F)(F)F)nc3ccccc32)cc1` gave a Ki [35] of 1.9 µM.
